Test results published in publication PMC6301270 (MedChemComm, 2018).

Each compound was assayed on T.b. brucei (strain 427) bloodstream form parasites (assay: T.b. brucei single concentration screen (10 μM)). Conditions: Trypanosoma brucei, read-out: T.b.brucei % viability (10 µM).

SMILES | viability at 10 µM [%]
CC(C)(C)OC(=O)N1CCN(c2nccc(-c3ccc(-c4ccc(Cl)cc4)s3)n2)CC1 [MMV688416, CC(C)(C)OC(=O)N1CCN(CC1)c2nccc(n2)c3ccc(s3)c4ccc(Cl)cc4] | 94
Cn1ccnc1CNCCS(=O)(=O)c1cccc(Nc2ccc(-c3cccc(F)c3)cn2)c1 [MMV688466, Cn1ccnc1CNCCS(=O)(=O)c2cccc(Nc3ccc(cn3)c4cccc(F)c4)c2] | 87
Nc1ncnc2[nH]nc(Cc3cccc4ccccc34)c12 [MMV688469, Nc1ncnc2[nH]nc(Cc3cccc4ccccc34)c12] | 98
CS(=O)(=O)N1CCC(CCn2nc(Cc3cccc4ccccc34)c3c(N)ncnc32)CC1 [MMV688470, CS(=O)(=O)N1CCC(CCn2nc(Cc3cccc4ccccc34)c3c(N)ncnc23)CC1] | 99
CC(C(=O)Nc1ccc2oc(-c3ccncc3)nc2c1)c1ccccc1 (stereo not drawn) [MMV688471, CC(C(=O)Nc1ccc2oc(nc2c1)-c1ccncc1)c1ccccc1] | 67
CC(Oc1cccc(Cl)c1)C(=O)Nc1ccc2oc(-c3ccncc3)nc2c1 (stereo not drawn) [MMV688472, CC(Oc1cccc(Cl)c1)C(=O)Nc1ccc2oc(nc2c1)-c1ccncc1] | 71
COc1cc(C2=NCCN2)ccc1-n1cc(-c2cccc(C3=NCCN3)c2)nn1 [MMV688474, COc1cc(ccc1n2cc(nn2)c3cccc(c3)C4=NCCN4)C5=NCCN5] | 105
CC(=O)NCC1CN(c2ccc(-c3ccc(CO)cc3)c(F)c2)C(=O)O1 (stereo not drawn) [MMV688508, CC(=O)NCC1CN(C(=O)O1)c2ccc(c(F)c2)c3ccc(CO)cc3] | 81
O=C(OCc1ccccc1)N1CCC(c2cc(-c3ccncc3)c(-c3ccc(F)cc3)[nH]2)CC1 [MMV688509, Fc1ccc(cc1)-c1[nH]c(cc1-c1ccncc1)C1CCN(CC1)C(=O)OCc1ccccc1] | 85
CC(C)(C)C(=O)N(CCCCCCN1C[C@H](O)[C@@H](O)[C@H](O)[C@H]1CO)C1CCCCCC1 [MMV688543, CC(C)(C)C(=O)N(CCCCCCN1C[C@H](O)[C@@H](O)[C@H](O)[C@H]1CO)C2CCCCCC2] | 107
COc1ccc(C2=NCCN2)cc1-c1cn(-c2cccc(C3=NCCN3)c2)nn1 [MMV688547, COc1ccc(cc1c2cn(nn2)c3cccc(c3)C4=NCCN4)C5=NCCN5] | 77
CC(C)(C)n1nc(-c2ccccc2)c2c(N)ncnc21 [MMV688548, CC(C)(C)n1nc(-c2ccccc2)c2c(N)ncnc12] | 81
Cc1nn(C(=O)Nc2cccc(C(F)(F)F)c2)c(C)c1Sc1ncccn1 [MMV688552, CC(C(SC1=NC=CC=N1)=C2C)=NN2C(NC3=CC=CC(C(F)(F)F)=C3)=O] | 96
O=C(NCc1ccoc1)N1CCN(Cc2ccc3c(c2)OCO3)CC1 [MMV688553, O=C(NCc1cocc1)N2CCN(Cc3ccc4OCOc4c3)CC2] | 98
CNc1snc(C)c1C(=O)NCCOc1ccc(OC)cc1 [MMV688554, CNc1snc(C)c1C(=O)NCCOc2ccc(OC)cc2] | 92
O=C(NCc1ccco1)N1CCN(Cc2ccc(Cl)s2)CC1 [MMV688555, Clc1ccc(CN2CCN(CC2)C(=O)NCc3occc3)s1] | 103
NCC(c1cccs1)S(=O)(=O)c1ccccc1 (stereo not drawn) [MMV688557, NCC(c1cccs1)S(=O)(=O)c2ccccc2] | 99
CN1CCC(c2cc(-c3ccncc3)c(-c3ccc(F)cc3)[nH]2)CC1 [MMV688703, CN1CCC(CC1)c1cc(c([nH]1)-c1ccc(F)cc1)-c1ccncc1] | 68
Cc1cc2nc(NC(=O)C(C)(C)C)nc(Cl)c2n1Cc1ccc(Cl)cc1 [MMV688704, Cc1cc2nc(NC(=O)C(C)(C)C)nc(Cl)c2n1Cc1ccc(Cl)cc1] | 88
CO/N=C(\C(=O)OC)c1ccccc1CO/N=C(\C)c1cccc(C(F)(F)F)c1 [MMV688754, CO\N=C(/C(=O)OC)\c1ccccc1CO\N=C(/C)\c2cccc(c2)C(F)(F)F] | 100
O=[N+]([O-])c1cn2c(n1)OC[C@@H](OCc1ccc(OC(F)(F)F)cc1)C2 [MMV688755, [O-][N+](=O)c1cn2C[C@@H](COc2n1)OCc3ccc(OC(F)(F)F)cc3] | 95
CC(=O)NC[C@H]1CN(c2ccc(N3CCSCC3)c(F)c2)C(=O)O1 [MMV688756, CC(=O)NC[C@H]1CN(C(=O)O1)c2ccc(N3CCSCC3)c(F)c2] | 106
c1ccc(-c2[nH]c3ccccc3c2C(c2ccccn2)N2CCCC2)cc1 (stereo not drawn) [MMV688762, C1CCN(C1)C(c2ccccn2)c3c([nH]c4ccccc34)c5ccccc5] | 108
CNc1nnc(Sc2cnn(-c3ccccc3)c(=O)c2Cl)s1 [MMV688763, CNc1nnc(SC2=C(Cl)C(=O)N(N=C2)c3ccccc3)s1] | 49
COc1ccc(-c2onc(C(F)(F)F)c2-c2ccc(Cl)cc2)c(O)c1 [MMV688766, COc1ccc(c(O)c1)c2onc(c2c3ccc(Cl)cc3)C(F)(F)F] | 88
Cc1ccccc1C(=O)N1N=C(Nc2ccccc2)SC1(C)C [MMV688771, Cc1ccccc1C(=O)N2N=C(Nc3ccccc3)SC2(C)C] | 97
O=C(N[C@H](Cc1ccccc1)C(=O)Nc1ccccc1N1CCOCC1)c1cccs1 [MMV688845, O=C(Nc1ccccc1N2CCOCC2)[C@@H](Cc3ccccc3)NC(=O)c4cccs4] | 94

SMILES | viability at 10 µM [%]
Cc1ccccc1CN1CCC(O)(c2ccc(Cl)c(C(F)(F)F)c2)CC1 [MMV688846, Cc1ccccc1CN2CCC(O)(CC2)c3ccc(Cl)c(c3)C(F)(F)F] | 98
CC(C)(C)n1nc(Cc2ccc(F)c(Cl)c2)c2c(N)ncnc21 [MMV688852, CC(C)(C)n1nc(Cc2ccc(F)c(Cl)c2)c2c(N)ncnc12] | 87
CCOc1ccc2cc(-c3nn(C(C)(C)C)c(N)c3C(N)=O)cnc2c1 [MMV688853, CCOc1ccc2cc(cnc2c1)c3nn(c(N)c3C(=O)N)C(C)(C)C] | 99
CCOc1ccc2cc(-c3nn(CC4CCN(C)CC4)c4ncnc(N)c34)ccc2c1 [MMV688854, CCOc1ccc2cc(ccc2c1)c3nn(CC4CCN(C)CC4)c5ncnc(N)c35] | 33
CN1CCN(c2cc(-c3ccc(F)cc3)nc(-c3ccncc3)n2)CC1 [MMV688888, CN1CCN(CC1)c2cc(nc(n2)c3ccncc3)c4ccc(F)cc4] | 92
Clc1ccc(CCNc2cc(-c3ccccc3)nc3ncnn23)cc1 [MMV688889, Clc1ccc(CCNc2cc(nc3ncnn23)c4ccccc4)cc1] | 74
COc1cc(Br)cc2cc(C(=O)Nc3cccc(C(F)(F)F)c3)c(=O)oc12 [MMV688891, COc1cc(Br)cc2C=C(C(=O)Nc3cccc(c3)C(F)(F)F)C(=O)Oc12] | 96
OC[C@H]1O[C@@H](n2c3ccc(Cl)cc3c3c(-c4cc5ccccc5o4)ncnc32)C(O)[C@H]1O (stereo partly drawn) [MMV688921, OC[C@H]1O[C@H](C(O)[C@H]1O)n2c3ccc(Cl)cc3c4c(ncnc24)c5oc6ccccc6c5] | 97
CCc1nn(C)c(C(=O)NCc2ccc(Oc3ccc(C)cc3)cc2)c1Cl [MMV688934, CCc1nn(C)c(C(=O)NCc2ccc(Oc3ccc(C)cc3)cc2)c1Cl] | 101
O=C(c1ccco1)N(CCCn1ccnc1)c1nc2c(Cl)cccc2s1 [MMV688936, Clc1cccc2sc(nc12)N(CCCn3ccnc3)C(=O)c4occc4] | 92
CCOc1ccc(-c2nc(CNCCc3ccc(F)cc3)cs2)cc1 [MMV688938, CCOc1ccc(cc1)c2nc(CNCCc3ccc(F)cc3)cs2] | 63
Cc1ccc2nc(C)c(-c3ccn(Cc4ccccc4)n3)n2c1 [MMV688939, Cc1ccc2nc(C)c(c3ccn(Cc4ccccc4)n3)n2c1] | 101
COc1cc(CN2CCC3(C=Cc4ccccc43)CC2)cc2c1OCO2 [MMV688941, COc1cc(CN2CCC3(CC2)C=Cc4ccccc34)cc5OCOc15] | 114
CC(C)(C)C(O)C(Oc1ccc(-c2ccccc2)cc1)n1cncn1 (stereo not drawn) [MMV688942, CC(C)(C)C(O)C(Oc1ccc(cc1)c2ccccc2)n3cncn3] | 79
CC1COC(Cn2cncn2)(c2ccc(Oc3ccc(Cl)cc3)cc2Cl)O1 (stereo not drawn) [MMV688943, CC1COC(Cn2cncn2)(O1)c3ccc(Oc4ccc(Cl)cc4)cc3Cl] | 100
Cc1cc(NC(=O)c2ccc(Oc3ccc(Cl)cc3O)o2)no1 [MMV688955, Cc1cc(NC(=O)c2ccc(Oc3ccc(Cl)cc3O)o2)no1] | 88
CCc1cc(=O)n(C)c(SC(C)C(=O)Nc2ccc(F)cc2)n1 (stereo not drawn) [MMV688980, CCC1=CC(=O)N(C)C(=N1)SC(C)C(=O)Nc2ccc(F)cc2] | 101
Clc1ccc(CN2CCN(C3=NCCN3)CC2)cc1Cl [MMV689060, Clc1ccc(CN2CCN(CC2)C3=NCCN3)cc1Cl] | 101
CC(=O)Nc1ccc(-c2noc(CC3CCCN(Cc4cccc(F)c4C)C3)n2)cc1 (stereo not drawn) [MMV689061, CC1=C(F)C=CC=C1CN2CCCC(CC3=NC(C4=CC=C(NC(C)=O)C=C4)=NO3)C2] | 92
FC(F)(F)c1ccc(N(c2cccnc2)C2CCN(c3ccc(C(F)(F)F)cn3)CC2)cc1 [MMV689243, FC(F)(F)c1ccc(cc1)N(C2CCN(CC2)c3ccc(cn3)C(F)(F)F)c4cccnc4] | 103
O=C([C@@H](c1ccc(Cl)cc1)c1cccnc1)N1CCN(c2ccc(C(F)(F)F)cc2)CC1 [MMV689244, FC(F)(F)c1ccc(cc1)N2CCN(CC2)C(=O)[C@@H](c3ccc(Cl)cc3)c4cccnc4] | 108
Nc1ncnc2c1ncn2C[C@@H](O)[C@@H](O)C(=O)O [MMV689255, Nc1ncnc2c1ncn2C[C@@H](O)[C@@H](O)C(=O)O] | 111
CC(c1cc(Cl)cc(Cl)c1)N(C)c1ncc2c(N)nc(N)nc2n1 (stereo not drawn) [MMV689437, CC(N(C)c1ncc2c(N)nc(N)nc2n1)c3cc(Cl)cc(Cl)c3] | 98
CNc1cc(C)nc(C2CN(C(=O)c3n[nH]c4ccccc34)CCO2)c1 (stereo not drawn) [MMV689709, O=C(N1CC(C2=CC(NC)=CC(C)=N2)OCC1)C3=NNC4=C3C=CC=C4] | 87
COc1ccc(Oc2ccc([C@@H](C)N(C)c3ncc4c(N)nc(N)nc4n3)cc2)cc1 [MMV690102, COc1ccc(Oc2ccc(cc2)[C@@H](C)N(C)c3ncc4c(N)nc(N)nc4n3)cc1] | 42
C[C@H](c1ccc2c(c1)CCCC2)N(C)c1ncc2c(N)nc(N)nc2n1 [MMV690103, C[C@@H](N(C)c1ncc2c(N)nc(N)nc2n1)c3ccc4CCCCc4c3] | 26
CCc1ccc(C(NCc2nc(N)nc(N(C)C)n2)C(C)C)cc1 (stereo not drawn) [MMV1019989, CCc1ccc(cc1)C(NCc2nc(N)nc(n2)N(C)C)C(C)C] | 92
